In article PMC3025922 (BMC Biology, 2010):
Like-named read-outs stand apart in the source and are kept apart here.

Tested on: nuclear p27 in LNCaP-S14 cells
Assay type: cell-based, human
[1] = primary screening, nuclear p27 in LNCaP-S14 cells
[2] = primary screening, S = strong, M = medium, W = weak by Z score

| Structure (SMILES) | Z score (aver) [1] | Clasf [2] | Clasf | Z score (aver) |
| --- | --- | --- | --- | --- |
| COc1cc(OC)c(CN2CCC(NC(=O)c3ccc(-n4nc(C(C)(C)C)cc4C(C)(C)C)cc3)C2)c(OC)c1 (stereo not shown) [567D12] | 8.89 | S (strong (Z score > 5)) | – | – |
| O=C(NC1=C(Cl)C(=O)c2ccccc2C1=O)OC1CCCCCCC1 [567K05] | 2.74 | W (weak (Z score 2-3) | – | – |
| O=C(OCn1ncc(Cl)c(Cl)c1=O)c1cccc(C(F)(F)F)c1 [567M11] | 4.23 | M (medium (Z score 3-5)) | – | – |
| O=C(OCn1ncc(Cl)c(Cl)c1=O)c1ccc(C(F)(F)F)cc1 [567M13] | – | S (strong (Z score > 5)) | – | – |
| O=C(NCCCn1ccnc1)OCc1ccc(C#Cc2ccccc2)s1 [567M14] | 2.83 | W (weak (Z score 2-3) | – | – |
| COc1ccc2[nH]cc(CCNC(=O)OCC3CC4CCC3C4)c2c1 (stereo not shown) [567M20] | 4.13 | M (medium (Z score 3-5)) | – | – |
| O=C1c2ccccc2C(=O)N1Oc1ccc([N+](=O)[O-])c([N+](=O)[O-])c1 [669F07] | 3.84 | M (medium (Z score 3-5)) | – | – |
| Cc1ccc(C(=O)C2C(c3ccccc3I)C(C#N)(C#N)C3c4ccccc4C=CN23)cc1 (stereo not shown) [669K08] | 2.72 | W (weak (Z score 2-3) | – | – |
| CC(=O)C1C(c2cccc(I)c2)C(C#N)(C#N)C2C=Cc3ccccc3N12 (stereo not shown) [669K10] | 3.55 | M (medium (Z score 3-5)) | – | – |
| N#CC1(C#N)C(c2cccc(I)c2)C(C(N)=O)N2C=Cc3ccccc3C21 (stereo not shown) [669M10] | 6.90 | S (strong (Z score > 5)) | – | – |
| N#CC1(C#N)C(c2ccccc2I)C(C(=O)C23CC4CC(CC(C4)C2)C3)N2c3ccccc3C=CC21 (stereo not shown) [669O10] | 6.23 | S (strong (Z score > 5)) | – | – |
| Cc1ccc(C)n1-c1ccccc1CNS(=O)(=O)c1ccc(Cl)cc1 [669P04] | 5.53 | S (strong (Z score > 5)) | – | – |
| COc1ccc(C2=NN3C(C2)c2cc(Cl)ccc2OC32CCCC2)cc1 (stereo not shown) [1157E14] | 4.67 | M (medium (Z score 3-5)) | – | – |
| N#Cc1cc2c(nc1SCC(=O)Nc1ccccc1F)CCCCC2 [1158J04] | 2.92 | W (weak (Z score 2-3) | – | – |
| COc1ccccc1N1CCN(C(=O)CSc2nc3ccccc3c(=O)n2CCC(=O)NC2CCCCC2)CC1 [1158L12] | 2.46 | W (weak (Z score 2-3) | – | – |
| CCOC(=O)C1=C(C)N=c2sc(=Cc3ccc(N(CC)CC)o3)c(=O)n2C1c1ccccc1OC (stereo not shown) [1158M07] | 11.51 | S (strong (Z score > 5)) | – | – |
| COc1ccccc1C1Oc2ccc(Cl)cc2C2CC(c3ccc(Cl)cc3)=NN21 (stereo not shown) [1158M11] | 4.34 | M (medium (Z score 3-5)) | – | – |
| C=CCN1C(=O)CC(C(=O)Nc2ccc(OC)cc2)SC1=Nc1ccc(Cl)cc1 (stereo not shown) [1158M12] | 2.69 | W (weak (Z score 2-3) | – | – |
| CCOC(=O)C1=C(C)N=c2sc(=Cc3ccc(N4CCOCC4)o3)c(=O)n2C1c1ccc2c(c1)OCO2 (stereo not shown) [1158O07] | 8.87 | S (strong (Z score > 5)) | – | – |
| CC(=O)C1=C(C)NC(SCC(=O)c2ccc(Cl)cc2Cl)=C(C#N)C1c1sccc1C (stereo not shown) [1159B21] | 2.34 | W (weak (Z score 2-3) | – | – |
| O=[N+]([O-])C(=C(Cl)Sc1ccccc1)C(Cl)=C(Cl)Cl [1159C10] | 2.72 | W (weak (Z score 2-3) | – | – |

| Structure (SMILES) | Z score (aver) [1] | Clasf [2] | Clasf | Z score (aver) |
| --- | --- | --- | --- | --- |
| COc1ccc2c(c1)OC1(C=C2)N(C)c2ccccc2C1(C)C (stereo not shown) [1159E12] | 12.29 | S (strong (Z score > 5)) | – | – |
| COC(=O)C1=C(N)n2c(sc(=Cc3ccc(Cl)cc3)c2=O)=C(C(=O)OC)C1c1ccc(Cl)cc1 (stereo not shown) [1159F17] | 2.15 | W (weak (Z score 2-3) | – | – |
| N#Cc1c(N)nc(SCC(=O)NCc2ccccc2)c(C#N)c1-c1cccs1 [1159G21] | 3.48 | M (medium (Z score 3-5)) | – | – |
| Cc1ccc(-c2cn3c([n+]2-c2ccc(C)cc2)CCCCC3)cc1 [1159I14] | 2.49 | W (weak (Z score 2-3) | – | – |
| COc1ccc(Br)cc1C1CC(=O)Nc2c1ccc1ccccc21 (stereo not shown) [1159L15] | 2.32 | W (weak (Z score 2-3) | – | – |
| COc1ccc(-c2nc3c4ccccc4c4ccccc4c3[nH]2)c(OC)c1 [1160C13] | 2.90 | W (weak (Z score 2-3) | – | – |
| O=C1C2C3c4ccccc4C(CO)(c4ccccc43)C2C(=O)N1c1ccc(Br)cc1 (stereo not shown) [1160E22] | 2.44 | W (weak (Z score 2-3) | – | – |
| COc1cc(C(=O)N2c3ccc(C)cc3-c3c(ssc3=S)C2(C)C)cc(OC)c1OC [1160F11] | 3.09 | M (medium (Z score 3-5)) | – | – |
| CCNC(=O)C=C1NC(C)(C)Cc2c1ccc1ccccc21 [1160G14] | 2.31 | W (weak (Z score 2-3) | – | – |
| Sc1nnc2c3ccccc3n(CCc3ccccc3)c2n1 [1160H09] | 2.51 | W (weak (Z score 2-3) | – | – |
| CN(C)c1ccc(C=CC=CC23NC(=O)CN2c2ccccc2C3(C)C)cc1 (stereo not shown) [1160J08] | 4.94 | M (medium (Z score 3-5)) | – | – |
| N#CC1=C(N)C(C#N)(C#N)C(c2ccc(Br)cc2)C2CN(Cc3ccccc3)CC=C12 (stereo not shown) [1160K18] | 2.90 | W (weak (Z score 2-3) | – | – |
| COc1ccccc1C(=O)N1c2ccccc2Sc2ccccc21 [1160M09] | 2.71 | W (weak (Z score 2-3) | – | – |
| Cc1ccc(C)c2c1-c1ccccc1S(=O)(=O)N2S(=O)(=O)c1ccccc1 [1160M11] | 2.11 | W (weak (Z score 2-3) | – | – |
| Cc1nc(NCCc2c[nH]c3ccccc23)cc(-c2ccc(F)cc2)n1 [1306E02] | 3.02 | M (medium (Z score 3-5)) | – | – |
| CCN(CC)c1cc(-c2ccc(F)cc2)nc(-c2ccncc2)n1 [1306I06] | 3.11 | M (medium (Z score 3-5)) | – | – |
| Fc1ccc(-c2cc(NCc3ccc(Cl)cc3)nc(-c3ccncc3)n2)cc1 [1306I08] | 3.44 | M (medium (Z score 3-5)) | – | – |
| COC(=O)c1c(-c2c(Cl)cccc2Cl)noc1C=CN(C)C [1306I21] | 4.49 | M (medium (Z score 3-5)) | – | – |
| Fc1ccc(-c2cc(NC3CC3)nc(-c3ccncc3)n2)cc1 [1306K08] | 3.56 | M (medium (Z score 3-5)) | – | – |
| CCCN1CCC(N(C(=O)c2cccc(C(F)(F)F)c2)c2ccc3[nH]c(C(C)(C)C)cc3c2)CC1 [1306L20] | 6.78 | S (strong (Z score > 5)) | – | – |
| CCC1(O)C(=O)OCc2c1cc1n(c2=O)Cc2cc3c(O)cccc3nc2-1 (stereo not shown) [1361B06] | 7.99 | S (strong (Z score > 5)) | – | – |

| Structure (SMILES) | Z score (aver) [1] | Clasf [2] | Clasf | Z score (aver) |
| --- | --- | --- | --- | --- |
| C=CCNC1=C2CC(C)CC(OC)C(O)C(C)C=C(C)C(OC(N)=O)C(OC)C=CC=C(C)C(=O)NC(=CC1=O)C2=O (stereo not shown) [1361H16] | 3.92 | M (medium (Z score 3-5)) | – | – |
| COC1=CC(C)=CC(C)C(O)C(C)CC(C)=CC=CC(OC)C(C(C)C(O)C(C)C2CC(O)C(C)C(C(C)C)O2)OC1=O (stereo not shown) [1361J12] | 4.65 | M (medium (Z score 3-5)) | – | – |
| CC=C(C)C(=O)OC1C(C)=C2C(C1OC(=O)CCCCCCC)C(C)(OC(C)=O)CC(OC(=O)CCC)C1(O)C2OC(=O)C1(C)O (stereo not shown) [1361L03] | 8.27 | S (strong (Z score > 5)) | – | – |
| CNc1ccc2oc(CC3OC4(CCC3C)OC(C(C)C(=O)c3ccc[nH]3)C(C)CC4C)nc2c1C(=O)O (stereo not shown) [1361O18] | 8.06 | S (strong (Z score > 5)) | – | – |
| N#CC(C#N)=NNc1ccc(OC(F)(F)F)cc1 [1362E11] | – | – | S (key: S: strong (Z score > 5); M: medium (Z score 3-5); W: weak (Z score 2-3) | 6.18 |
| CC1OC(=O)C(C(C)C)NC(=O)C(C(C)C)OC(=O)C(C(C)C)NC(=O)C(C)OC(=O)C(C(C)C)NC(=O)C(C(C)C)OC(=O)C(C(C)C)NC(=O)C(C)OC(=O)C(C(C)C)NC(=O)C(C(C)C)OC(=O)C(C(C)C)NC1=O (stereo not shown) [1362N07] | 7.42 | S (strong (Z score > 5)) | – | – |
| COCC1OC(=O)c2coc3c2C1(C)C1=C(C3=O)C2CCC(=O)C2(C)CC1OC(C)=O (stereo not shown) [1362N13] | 6.65 | S (strong (Z score > 5)) | – | – |
| CCOC(=O)c1cc(C#N)c(Sc2ccc(C)cc2)nc1C(F)(F)F [1520B07] | 5.43 | S (strong (Z score > 5)) | – | – |
| CC1=NC(=Cc2sccc2C)C(=O)O1 [1520B10] | 2.27 | W (weak (Z score 2-3) | – | – |
| COc1ccc(OCC(=N)NC(=S)Nc2ccc(Cl)cc2)cc1 [1520B19] | 2.51 | W (weak (Z score 2-3) | – | – |
| O=C(CSC1=NNC(c2ccccn2)S1)c1cccc(F)c1 (stereo not shown) [1520D17] | 4.91 | M (medium (Z score 3-5)) | – | – |
| Cc1cc(Br)ccc1NC(=O)CCCc1c[nH]c2ccccc12 [1520E21] | 4.74 | M (medium (Z score 3-5)) | – | – |
| COc1ccc(SC(=O)c2cc(C)n(Cc3c(Cl)cccc3Cl)n2)cc1 [1520J06] | 3.39 | M (medium (Z score 3-5)) | – | – |
| CCCNC(=O)Nc1nc(Nc2ccc(Cl)cc2)n[nH]1 [1520J18] | 3.47 | M (medium (Z score 3-5)) | – | – |
| Cc1onc(-c2c(Cl)cccc2Cl)c1-c1csc(CCn2c(=O)oc3ccccc32)n1 [1520L12] | 2.13 | W (weak (Z score 2-3) | – | – |
| O=c1c(C(F)(F)F)cccn1CCc1nc(-c2ccccc2)cs1 [1520N01] | 3.32 | M (medium (Z score 3-5)) | – | – |
| Cc1cc(C(=O)Sc2cccc(Br)c2)nn1C(C)(C)C [1520N02] | 5.16 | S (strong (Z score > 5)) | – | – |
| CC(C)c1ccc(NC(=O)N2CCCN(CCOc3ccccc3)CC2)cc1 [1520P16] | 2.72 | W (weak (Z score 2-3) | – | – |
| C=C(CC)C(=O)c1ccc(OCC(=O)O)c(Cl)c1Cl [1568D20] | 3.20 | M (medium (Z score 3-5)) | – | – |
